Assay results published in US8232584B2 (priority 2005, dated 2012).
Like-named read-outs stand apart in the source and are kept apart here.

Columns and labels:
[1] = test system: Ab2, monoclonal antibody receptor cross reactive to f-PSA and PSA-ACT; assay type: binding
[2] = test system: monoclonal antibodies for PSA (Ab1); assay type: binding
[3] = assay type: binding; conditions: BT 5 ng/ml; PSA 100 ng/ml; BSA 10 microgram/ml; phosphate buffer pH 6.7
[4] = assay type: binding; conditions: CT 5 ng/ml; PSA 100 ng/ml; BSA 10 microgram/ml; phosphate buffer pH 6.7
[5] = f-PSA 1700 pg/ml, p-type silicon nanowire

Substance	Conductance Change NW2-Ab2 ([1]; f-PSA 0.085 pg/ml) [nS]	Conductance Change NW2-Ab2 ([1]; f-PSA 0.85 pg/ml) [nS]	Conductance Change NW2-Ab2 ([1]; f-PSA 8.5 pg/ml) [nS]	Conductance Change NW2-Ab2 ([1]; f-PSA 850 pg/ml) [nS]	Conductance Change NW2-Ab2 [1, 5] [nS]	Conductance Change NW1-Ab1 ([2]; f-PSA 0.085 pg/ml) [nS]	Conductance Change NW1-Ab1 ([2]; f-PSA 0.85 pg/ml) [nS]	Conductance Change NW1-Ab1 ([2]; f-PSA 8.5 pg/ml) [nS]	Conductance Change NW1-Ab1 ([2]; f-PSA 850 pg/ml) [nS]	Conductance Change NW1-Ab1 [2, 5] [nS]	conductance response to injection [3]	conductance response to injection [4]	Conductance Change NW2-Ab2 ([1]; PSA-ACT 0.32 pg/ml) [nS]	Conductance Change NW2-Ab2 ([1]; PSA-ACT 3.2 pg/ml) [nS]	Conductance Change NW2-Ab2 ([1]; PSA-ACT 320 pg/ml) [nS]	Conductance Change NW2-Ab2 ([1]; PSA-ACT 3200 pg/ml) [nS]
f-PSA: free prostate specific antigen, cancer marker protein, purchased from Calbiochem	10	50	81	132	154	15	45	98	185	192	no response was observed	no response was observed				
PSA-ACT: PSA-alpha-1-antichymotrypsin complex, cancer marker													19	67	124	143
